For series [1] the following is noted: background statement; cited from earlier work.
For series [2], the system named is human blood. Kind of series: Thrombin clotting time in whole blood, alexidine solutions (Example 1). Format: biochemical. The following applies: partial clotting. On the procedure:
Solutions of varying alexidine concentrations (50-300 micrograms/mL) were incubated in individual test tubes, each containing 0.50 mL of human blood. The human blood was supplemented with 3.8% sodium citrate. The incubation was for 1 hour on a gyratory shaker set at 24 rpm and 37 degrees C. After 1 hour, 10 microliters of 500 Units/mL thrombin, and 60 microliters of 200 mM CaCl2 was added to each of the incubating blood samples. Blood clotting time was then measured using a stop watch. Table 1 discloses the results.

The subject of series [3] is human blood. Kind of series: Fluid phase thrombin clotting time, alexidine versus chlorhexidine (Example 4). The following applies: for clotting time: 6.25 ug/mL; for Thrombin Clotting Time in whole blood: replicates 1-5. The class given is biochemical. The procedure:
The following provides a side-by-side comparison of alexidine with chlorhexidine. Fluid phase experiments were conducted to compare the influences of alexidine and chlorhexidine on thrombin clotting time (Table 6). […] The reaction mixtures contained freshly drawn human blood, alexidine or chlorhexidine as indicated, and exogenously added thrombin. The experiment was repeated five times, as indicated by replicates 1-5. The concentrations of alexidine or chlorhexidine that were used in the experiments were zero ug/mL (baseline), 3.125, 6.25, 12.5, 25, 50, or 100 ug/mL, as indicated. […] This dramatic difference was also observed when higher concentrations of antimicrobials were used in the clotting reactions.

On to `N=C(NCCCCCCNC(=N)NC(=N)Nc1ccc(Cl)cc1)NC(=N)Nc1ccc(Cl)cc1.O=C(O)[C@H](O)[C@@H](O)[C@H](O)[C@H](O)CO.O=C(O)[C@H](O)[C@@H](O)[C@H](O)[C@H](O)CO` [CHG, chlorhexidine gluconate], for which, in series [1], the solubility in water entry is “highly soluble in water”.

`CCCCC(CC)CNC(=N)NC(=N)NCCCCCCNC(=N)NC(=N)NCC(CC)CCCC` (stereo not shown) [alexidine]: the “Thrombin Clotting Time in whole blood” value with human blood [2] (0.2 mg/mL alexidine) is “Greater than 72 hours (partial clotting)”; in the series on human blood [2] (0.3 mg/mL alexidine) it was “Greater than 72 hours (partial clotting)”; in the series with human blood [3] (12.5 μg/mL), more than 24 h; in the series on human blood [3] (25 μg/mL), more than 24 h; in the series on human blood [3] (50 μg/mL) it was more than 24 h; in the series with human blood [3] (100 μg/mL), more than 24 h. Moreover, the clotting time entry in the series with human blood [3] is on record as “about five”. Besides, in the series on human blood [3] (thrombin clotting time, fluid phase), the “potency in inhibiting blood clotting relative to chlorhexidine” value is on record as “four times more potent”. In addition, the solubility in water result in series [1] is listed as “relatively low solubility in water”.

Turning to `[H]/N=C(\N/C(=N/[H])NCCCCCCNC(=N)NC(=N)Nc1ccc(Cl)cc1)Nc1ccc(Cl)cc1` [chlorhexidine], the clotting time entry with human blood [3] is “about thirty”. In addition, the “Thrombin Clotting Time in whole blood” value in the series on human blood [3] (50 μg/mL) and in the series on human blood [3] (100 μg/mL) was more than 24 h in each case.
